PMC10967270, “Intrapulmonary and Systemic Pharmacokinetics of Colistin Following Nebulization of Low-Dose Colistimethate Sodium in Patients with Ventilator-Associated Pneumonia Caused by Carbapenem-Resistant Acinetobacter baumannii” (Antibiotics, 2024)
Read-outs that look alike come from different tables or passages of the source. Positions of bridges follow the written chain, without caps; N, C: chain ends. Non-standard residues stand in square brackets, D forms with d. Residues, ends and D or L forms follow the SMILES beside them. *: point of attachment. X1 = CC[C@H](C)CCCCC(=O)*; Dab = NCC[C@H](N)C(=O)O

Legend:
[1] = Population PK model of colistin in epithelial lining fluid (NONMEM, one-compartment, Weibull absorption); assay type: in vivo, human; conditions: ELF
Excerpt: (§1) The time courses of colistin concentrations in ELF and plasma were best described using one-compartment models with a Weibull absorption process. The following structural PK model described by two differential equations was applied:(1) dA1/dt=−WB×A1 (2) WB=KAMAX×1−e^−RA×time^GAM (3) dA2/dt=WB×A1−CL/V×A2 where A1 and A2 represent the amounts of colistin in ELF and plasma, and WB denotes the Weibull absorption function with parameters KAMMA, RA, and GAM. KAMMA determines the function’s maximum value, often representing the maximum rate of absorption or event occurrence. RA, the shape parameter, controls the rate of change over time, influencing the distribution’s slope and how quickly it increases or decreases. GAM adjusts the time variable’s exponent, controlling the rate of growth or decline over time, thereby affecting the distribution’s asymmetry and indicating the curve’s speed in reaching its peak or declining. CL and V are the total clearance and volume of distribution for colistin, respectively. The estimated CL and V in Table 2 were expressed as CL/fm and V/fm, respectively, where fm represents the fraction of CMS metabolized to colistin, a value that cannot be estimated from our study data. No significant covariates influencing the PK parameters were identified. The estimated PK parameters for the final PK models are presented in Table 2, while individual fit plots for colistin in ELF and plasma can be found in Figure 2 and Figure 3, respectively. Diagnostic goodness-of-fit plots for the final PK model of colistin in ELF and plasma are shown in Supplementary Materials Figures S1 and S2, respectively. […] With the observed 10th, 50th, and 90th percentiles mostly within the 95% confidence intervals of the simulated percentiles, the final PK models effectively explained the observed concentrations and had good predictive performance.
(§2) A population PK analysis of colistin in ELF and plasma was conducted using NONMEM 7.5.0 (ICON Clinical Research LLC, North Wales, PA, USA). The analysis used first-order conditional estimation with interaction (FOCEI) to estimate both observed fixed and unexplained random effect parameters. The FOCEI allows the inter-individual variability (IIV) in the PK parameters to interact with the residual unexplained variability (RUV) in the observed concentrations. The RUV arises from factors such as within-subject variability, assay error, and potential misspecification of the model. ADVAN1 TRANS2 and ADVAN3 TRANS4 from the NONMEM PK model library were used to construct the single- and two-compartment models, respectively. Except for drug inhalation, all PK processes were assumed to follow first-order kinetics. Various absorption models, including zero-order, first-order, Weibull, and transit absorption models, were investigated to describe the absorption processes of colistin.
(§3) The representation of each PK parameter was given by θi = θ × exp(ηi), where θ stands for the typical value of the PK parameter, θi represents an individual PK parameter, and ηi is a random variable associated with IIV. It was assumed that IIV follows a normal distribution with a mean of 0 and a variance of ω^2. For RUV, which was assumed to be normally distributed with a mean of 0 and a variance of σ^2; additive, proportional, and combined additive and proportional error models were investigated.
(§4) Models were assessed and chosen based on NONMEM objective function values (OFVs), the precision of parameter estimates (relative standard errors), the shrinkage of IIV, and diagnostic goodness-of-fit plots. In the log-likelihood ratio test, if the decrease in OFV (ΔOFV) is greater than 3.84 for models with one additional degree of freedom or greater than 5.99 for models with two additional degrees of freedom, it is considered statistically significant at p < 0.05, indicating an improvement in the model. […]

[2] = tested on: A. baumannii; conditions: among 2879 isolates, EUCAST; cited from earlier work
[3] = cited from earlier work
Procedure: We investigated whether the fAUC values of individual patients were associated with clinical or microbiological outcomes (Table 3). Using individual estimates of CL derived from the final PK model, we calculated the steady-state fAUC for each patient when a total of 3.75 MIU (=300 mg CMS = 112.5 mg CBA) was administered at 6 h intervals four times a day, using the formula AUC = DOSE/CL. The unbound fraction of colistin was assumed to be 10% [25] in the ELF based on the study by Gkoufa et al. and 34% in the plasma based on the study by Mohamed et al.. Gkoufa et al. presented concentrat ...

[4] = cited from earlier work; for Maximum ELF concentration, median (IQR): 2 MIU CMS
Procedure: The observed median (IQR) peak colistin concentration was 21,950 (10,440–28,389) μg/L in the ELF, while that in plasma was 43.51 (14.23–85.78) μg/L. Boisson et al. reported that, regardless of concentration, a significant adsorption of CMS to the mini-BAL device was not observed in studies utilizing the mini-BAL device. They also noted that non-specific adsorption was not significant at a concentration of 6 mg/L. Consequently, it appears from our study that there was no significant adsorption of CMS [23]. […] These studies measured concentrations of both CMS and colistin in the ELF, assuming equal V/fm for CMS and colistin. In our study, the V/fm of colistin in plasma was estimated at 67.4 L, which is much greater than the 13.7 L reported in Boisson et al.. Gkoufa et al. fixed this distribution volume at 13.7 L based on Boisson et al.. The CL/fm of colistin ... || The PK/PD index for colistin is the area under the free colistin concentration-–time curve at steady state over 24 h divided by the pathogen minimum inhibitory concentration (fAUC/MIC). Since we were unable to obtain MIC values for A. baumannii, we evaluated the relationship between the PK and PD of colistin by comparing the fAUC of each patient in accordance with their clinical outcomes and microbiological outcomes. AUC was calculated by dividing the daily dose by patient, which was the individual post hoc Bayesian estimate of the developed PK model. The bioavailability of colistin ...

[5] = Population PK model of colistin in plasma (NONMEM, one-compartment, Weibull absorption); assay type: in vivo, human
Excerpt: as §1, §2, §3, §4

[6] = tested on: A. baumannii; conditions: murine thigh infection model; cited from earlier work

Question: For CC[C@H](C)CCCCC(=O)N[C@@H](CCN)C(=O)N[C@H](C(=O)N[C@@H](CCN)C(=O)N[C@H]1CCNC(=O)[C@H]([C@@H](C)O)NC(=O)[C@H](CCN)NC(=O)[C@H](CCN)NC(=O)[C@H](CC(C)C)NC(=O)[C@@H](CC(C)C)NC(=O)[C@H](CCN)NC1=O)[C@@H](C)O [colistin] (X1-[Dab]T[Dab][Dab][Dab][dL]L[Dab][Dab]T; lactam 4-C), which “CL/fm, bootstrap median (95% CI)” value ([1]; 2000 bootstrap samples) is on record?
Answer: 0.529 (0.352–0.77) mL/min

Question: What about the “KAMAX, bootstrap median (95% CI)” value ([1]; 2000 bootstrap samples) of the same molecule?
Answer: 0.533 (0.335–0.973)

Question: And the “V/fm, bootstrap median (95% CI)” value ([1]; 2000 bootstrap samples)?
Answer: 24.3 (11.0–46.7) mL

Question: And the “KAMAX (maximum rate of absorption), estimate” value ([1]; Weibull absorption)?
Answer: 0.531

Question: What about the “CL/fm, estimate” value ([1]; final PK model) of the same molecule?
Answer: 0.541 mL/min

Question: What about the “V/fm, estimate” value ([1]; final PK model) of the same molecule?
Answer: 23.0 mL

Question: And the “Isolates with a colistin MIC of 1 mg/L, number (%)” value [2]?
Answer: 1451 (50.4%)

Question: And the “Isolates with a colistin MIC of 2 mg/L, number (%)” value [2]?
Answer: 539 (18.7%)

Question: And the “Isolates with a colistin MIC of 4 mg/L, number (%)” value [2]?
Answer: 54 (1.88%)

Question: What about the “Unbound fraction of colistin in the ELF” value ([3]; assumed, rounded from 0.099 used in simulations by Gkoufa et al.) of the same molecule?
Answer: 10%

Question: What about the “Unbound fraction of colistin in plasma, median” value ([3]; equilibrium dialysis, Mohamed et al.) of the same molecule?
Answer: 34%

Question: And the “Maximum ELF concentration, median (IQR)” value ([4]; jet nebulizer)?
Answer: 7.4 (6.2–10.3) mg/L

Question: And the “Maximum ELF concentration, median (IQR)” value ([4]; vibrating mesh nebulizer)?
Answer: 10.4 (4.7–22.6) mg/L

Question: And the “CL/fm of colistin in plasma” value ([4]; Boisson et al.)?
Answer: 53.1 mL/min

Question: What about the “V/fm of colistin in plasma” value ([4]; Boisson et al.) of the same molecule?
Answer: 13.7 L

Question: And the “V/fm of colistin in the ELF” value ([4]; Boisson et al.)?
Answer: 1.2 mL

Question: And the “CL/fm of colistin in plasma” value ([4]; Gkoufa et al.)?
Answer: 128 mL/min

Question: What about the “V/fm of colistin in the ELF” value ([4]; Gkoufa et al.) of the same molecule?
Answer: 14.5 mL

Question: And the Bioavailability of colistin ([4]; assumed from the literature to calculate the PK/PD index)?
Answer: 9%

Question: What about the “Intercompartmental CL/fm” value ([4]; between ELF and plasma, Gkoufa et al.) of the same molecule?
Answer: 0.372 mL/min

Question: And the “CL/fm, bootstrap median (95% CI)” value ([5]; 2000 bootstrap samples)?
Answer: 26.1 (6.66–67) mL/min

Question: What about the “KAMAX, bootstrap median (95% CI)” value ([5]; 2000 bootstrap samples) of the same molecule?
Answer: 1.20 (0.912–1.59)

Question: And the “V/fm, bootstrap median (95% CI)” value ([5]; 2000 bootstrap samples)?
Answer: 67.2 (46.6–93) L

Question: What about the “KAMAX (maximum rate of absorption), estimate” value ([5]; Weibull absorption) of the same molecule?
Answer: 1.20

Question: And the “CL/fm, estimate” value ([5]; final PK model)?
Answer: 26.3 mL/min

Question: What about the “V/fm, estimate” value ([5]; final PK model) of the same molecule?
Answer: 67.4 L

Question: What about the “fAUC/MIC target values for a 2 log10 kill” value [6] of the same molecule?
Answer: 17.5–43.0 mg/L·h
